Counter-ions that a name gives are not always drawn.
Tests used:
[1] = system: SKOV3 ovarian carcinoma cell line; experiment: Cellular cytotoxicity assay (Alamar Blue), SKOV3; format: cell-based; conditions: Homo sapiens, SK-OV-3; 72 h; only a range over the listed compounds is given; read-out: Cytotoxicity towards SKOV3 cell line IC50
Description: (§1) The anti-proliferative activity of the chimeric HDAC and protein kinase inhibitory chimeric compounds of the present invention was evaluated using HeLa cervical carcinoma, A549 NSCLC, SKOV3 ovarian carcinoma, Cal27 head and neck cancer, K562 chronic myeloid leukemia (CML) and EOL1 acute hypereosinophilic myeloid leukemia, cell lines. For quantification of cellular proliferation/living cells the Alamar Blue (Resazurin) cell viability assay was applied (O'Brien et al. Eur Biochem. 267, 5421-5426, 2000). In this assay Resazurin is reduced to the fluorescent resorufin by cellular dehydrogenase activity, correlating with viable, proliferating cells. The examples were dissolved as 20 mM solutions in dimethylsulfoxide (DMSO) and subsequently diluted in semi-logarithmic steps. Cell lines were seeded at respective density into 96 well flat bottom plates in a volume of 200 μl per well. 24 h after seeding 1 μl each of the compound dilutions were added into each well of the 96 well plate. Each compound dilution was tested as quadruplicates. Wells containing untreated control cells were filled with […] DMEM medium containing 0.5% v:v DMSO. The cells were then incubated with the substances for 72 h at 37° C. in a humidified atmosphere containing 5% carbon dioxide. To determine the viability of the cells, 20 μl of an Resazurin solution (Sigma; 90 mg/l) were added. After 4 h incubation at 37° C. the fluorescence was measured at an extinction of 544 nm and an emission of 590 nm. For the calculation of the cell viability the emission value from untreated cells was set as 100% viability and the emission rates of treated cells were set in relation to the values of untreated cells. Viabilities were expressed as % values. The corresponding IC50 values of the compounds for cytotoxic activity are determined from the concentration-effect curves by means of non-linear regression.

[2] = system: histone H3 hyperacetylation in HeLa cervical carcinoma cells; experiment: Cellular histone H3 hyperacetylation assay; format: cell-based; conditions: Homo sapiens, 24 h, only a range over the listed compounds is given, read-out: Induction of histone H3 hyperacetylation in HeLa cervical carcinoma cells EC50
Source text: To assess the cellular efficacy of a histone deacetylase inhibitor in vitro, an assay was set up in black clear-bottom 96-well plates and optimized for use on the Cellomics “ArrayScan II” platform for a quantitative calculation of histone acetylation. The protocol uses a polyclonal rabbit antibody, specifically binding to acetylated lysine 1-20 of human histone H3 on fixed cells with an Alexa Fluor 488 labeled goat anti rabbit-IgG used for counterstaining (Beckers et al. Int J. Cancer 121, 1138, 2007).
5×10^3 HeLa cervical carcinoma cells/well (ATCC. CCL-2) in 200 μl Dulbecco rs modified Eagle's medium (DMEM) containing 10% fetal calf serum are seeded at day 1 in Packard view plates and incubated for 24 h under standard cell culture conditions. On day 2, 1 μl test compound (200× final concentration) is added and incubation continued for further 24 h. On day 3, the culture medium is discarded and attached cells fixed for 15 min at room temperature by addition of 100 μl fixation buffer (3.7% v:v formaldehyde in phosphate buffered saline/PBS). After discarding the fixation buffer and one wash with blocking solution (1% BSA, 0.3% Tween 20 in PBS), cells are permeabilized at room temperature by addition of 100 μl/well permeabilization buffer (30.8 mM NaCl, 0.54 mM Na2HPO4, 0.31 mM KH2PO4, 0.1% v:v Triton X-100) for 15 min at room temperature. After discarding the permeabilization buffer and washing twice with 100 μl/well blocking solution at room temperature, the 1st antibody (anti-K^1-20 histone H3 antibody, Calbiochem No. 382158) in blocking solution (50 μl/well) is added. After incubation for 1 h at room temperature, the wells are washed twice at room temperature with 100 μl/well blocking solution before addition of the 2nd antibody (goat-anti-rabbit Alexa Fluor 488; MoBiTec No. A-11008) in blocking solution (50 μl/well). After further incubation for 1 h at room temperature, wells are washed twice with 100 μl/well blocking solution at room temperature. Finally, 100 μl/well PBS are added and image analysis performed on the Cellomics “ArrayScan II” platform. For EC50 determination, the percentage of positive cells showing nuclear fluorescence is determined and EC50 calculation done from concentration-effect curves by means of non-linear regression. For calibration, a positive (reference HDAC inhibitors like SAHA or NVP LBH-589) and a negative control were included.

A549 NSCLC cell line = experiment: Cellular cytotoxicity assay (Alamar Blue), A549; format: cell-based; conditions: Homo sapiens, A549; 72 h; only a range over the listed compounds is given; read-out: Cytotoxicity towards A549 NSCLC cell line IC50
Description: as §1

[3] = molecular target: T1, recombinant HDAC1 isolated from HEK293 cells with heterologous HDAC1 expression (Homo sapiens, UniProt Q13547); experiment: Fluorimetric rHDAC1 activity assay; format: biochemical; conditions: only a range of IC50 over the compounds given; read-out: rHDAC1 inhibitory activity IC50
T1 construct: made in house

[4] = system: HeLa cervical carcinoma cell line; experiment: Cellular cytotoxicity assay (Alamar Blue), HeLa; format: cell-based; conditions: Homo sapiens, 72 h, only a range over the listed compounds is given, read-out: Cytotoxicity towards HeLa cervical cell line IC50
Description: as §1

T1 sequence (Q13547 whole entry): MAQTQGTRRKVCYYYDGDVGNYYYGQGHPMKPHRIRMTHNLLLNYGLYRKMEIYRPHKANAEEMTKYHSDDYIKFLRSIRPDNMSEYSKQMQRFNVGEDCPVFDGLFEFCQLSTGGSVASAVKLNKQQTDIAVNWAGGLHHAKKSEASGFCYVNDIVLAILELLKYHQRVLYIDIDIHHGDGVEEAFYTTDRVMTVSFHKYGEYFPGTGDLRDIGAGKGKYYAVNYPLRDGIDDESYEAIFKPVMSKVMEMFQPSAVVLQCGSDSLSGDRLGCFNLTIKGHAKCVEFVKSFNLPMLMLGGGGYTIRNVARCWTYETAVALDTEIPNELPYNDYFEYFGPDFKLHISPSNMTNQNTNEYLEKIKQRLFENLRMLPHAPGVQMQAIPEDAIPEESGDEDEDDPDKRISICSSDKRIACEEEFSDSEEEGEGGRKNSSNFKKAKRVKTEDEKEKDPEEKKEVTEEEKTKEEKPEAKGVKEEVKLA

SMILES	melting point	IC50 [3]	IC50 (A549 NSCLC cell line)	also measured
Nc1ccccc1NC(=O)c1ccc(C(=O)Nc2cccc(Nc3nc(-c4cccnc4)cs3)c2)cc1 (hydrate or solvate) [[18], N^1-(2-aminophenyl)-N^4-(3-(4-(pyridin-3-yl)thiazol-2-ylamino)phenyl)terephthalamide hydrate]	224.8 to 224.9 °C	–	–	–
Nc1ccccc1NC(=O)c1ccc(-c2ccc3ncnc(Nc4ccc(OCc5cccc(F)c5)c(Cl)c4)c3c2)o1 [[5], 5-{4-[3-Chloro-4-(3-fluorobenzyloxy)phenylamino]-quinazolin-6-yl}furan-2-carboxylic acid (2-amino-phenyl)amide]	250 °C (dec.)	–	≥ 1100 nM	IC50 [1]: ≥ 1000 nM; EC50 [2]: ≥ 3650 nM
Nc1ccccc1NC(=O)/C=C/c1ccc(-c2ccc3ncnc(Nc4ccc(OCc5cccc(F)c5)c(Cl)c4)c3c2)cc1 [[10], (E)-N-(2-aminophenyl)-3-(4-(4-(3-chloro-4-(3-fluorobenzyloxy)phenylamino)quinazolin-6-yl)phenyl)acrylamide]	–	≥ 35.3 nM	≥ 1100 nM	–
Nc1ccccc1NC(=O)CCc1ccc(-c2ccc3ncnc(Nc4ccc(OCc5cccc(F)c5)c(Cl)c4)c3c2)cc1 [[12], N-(2-aminophenyl)-3-(4-(4-(3-chloro-4-(3-fluorobenzyloxy)phenylamino)quinazolin-6-yl)phenyl)propanamide]	–	≥ 35.3 nM	≥ 1100 nM	–
Nc1ccccc1NC(=O)/C=C/c1ccc(-c2ccc3ncnc(Nc4ccc(OCc5cccc(F)c5)c(Cl)c4)c3c2)o1 [[13], (E)-N-(2-aminophenyl)-3-(5-(4-(3-chloro-4-(3-fluorobenzyloxy)phenylamino)quinazolin-6-yl)furan-2-yl)acrylamide]	–	≥ 35.3 nM	≥ 1100 nM	–
Cc1ccc(NCc2ccc(/C=C/C(=O)NO)cc2)cc1Nc1nccc(-c2cccnc2)n1 [[16], (E)-N-Hydroxy-3-(4-{[4-methyl-3-(4-pyridin-3-yl-pyrimidin-2-ylamino)-phenylamino]methyl}-phenyl)-acrylamide]	201 to 205 °C	77 to 1400 nM	≥ 2950 nM	EC50 [2]: 1700 to 10000 nM; IC50 [4]: ≥ 1150 nM
O=C(NO)c1ccc(C(=O)Nc2cccc(Nc3nc(-c4cccnc4)cs3)c2)cc1 [[17], N^1-hydroxy-N^4-(3-(4-(pyridin-3-yl)thiazol-2-ylamino)phenyl)terephthalamide]	205.5 °C	–	≥ 2950 nM	–
Nc1ccccc1NC(=O)c1ccc(C(=O)Nc2cccc(Nc3nccc(-c4cccnc4)n3)c2)cc1 [[31], N-(2-Amino-phenyl)-N′-[3-(4-pyridin-3-yl-pyrimidin-2-ylamino)-phenyl]-terephthalamide]	–	–	≥ 2950 nM	–
Nc1ccccc1NC(=O)c1ccc(C(=O)Nc2ccc(Cl)c(Nc3nccc(-c4cccnc4)n3)c2)cc1 [[32], N-(2-Amino-phenyl)-N′-[4-chloro-3-(4-pyridin-3-yl-pyrimidin-2-ylamino)-phenyl]-terephthalamide compound with hydrochloric acid]	–	–	≥ 2950 nM	–
C#Cc1cccc(Nc2ncnc3ccc(NC(=O)c4ccc(C(=O)Nc5ccccc5N)s4)cc23)c1 [[38], Thiophene-2,5-dicarboxylic acid 2-[(2-amino-phenyl)-amide]-5-{[4-(3-ethynyl-phenylamino)-quinazolin-6-yl]-amide}]	–	–	≥ 240 nM	IC50 [1]: ≥ 560 nM; IC50 [4]: ≥ 500 nM
C#Cc1cccc(Nc2ncnc3cc(NC(=O)c4ccc(C(=O)Nc5ccccc5N)cc4)ccc23)c1 [[41], N-(2-Amino-phenyl)-N′-[4-(3-ethynyl-phenylamino)-quinazolin-7-yl]-terephthalamide]	–	–	–	IC50 [1]: ≥ 560 nM

The next lines start with results.

melting point	IC50 [3]	SMILES	IC50 (A549 NSCLC cell line)	also measured
222.3 °C	–	Nc1ccccc1NC(=O)c1ccc(C(=O)Nc2cccc(Nc3nc(-c4cccnc4)cs3)c2)s1 (as salt: salt) [[28], N^2-(2-aminophenyl)-N^5-(3-(4-(pyridin-3-yl)thiazol-2-ylamino)phenyl)thiophene-2,5-dicarboxamide]	–	–
147.1 °C	–	Cc1ccc(NC(=O)c2ccc(C(=O)Nc3ccccc3N)cc2)cc1Nc1nc(-c2cccnc2)cs1 [[21], N^1-(2-aminophenyl)-N^4-(4-methyl-3-(4-(pyridin-3-yl)thiazol-2-ylamino)phenyl)terephthalamide]	–	–
100.6 °C	77 to 1400 nM	O=C(/C=C/c1ccc(C(=O)Nc2cccc(Nc3nc(-c4cccnc4)cs3)c2)cc1)NO [[22], (E)-4-(3-(hydroxyamino)-3-oxoprop-1-enyl)-N-(3-(4-(pyridin-3-yl)thiazol-2-ylamino)phenyl)benzamide]	–	–
150.5 to 152.5 °C	–	Cc1ccc(NC(=O)c2ccc(C(=O)Nc3ccccc3N)nc2)cc1Nc1nccc(-c2cccnc2)n1 [[23], N^2-(2-aminophenyl)-N^5-(4-methyl-3-(4-(pyridin-3-yl)pyrimidin-2-ylamino)phenyl)pyridine-2,5-dicarboxamide]	–	–
242.4 °C	–	Cc1ccc(NC(=O)c2ccc(C(=O)Nc3ccccc3N)s2)cc1Nc1nc(-c2cccnc2)cs1 [[27], N^2-(2-aminophenyl)-N^5-(4-methyl-3-(4-(pyridin-3-yl)thiazol-2-ylamino)phenyl)thiophene-2,5-dicarboxamide]	–	–
205.6 °C	–	O=C(/C=C/c1ccc(C(=O)Nc2cccc(Nc3nc(-c4cccnc4)cs3)c2)s1)NO [[34], (E)-5-(3-(hydroxyamino)-3-oxaprop-1-enyl)-N-(3-(4-(pyridin-3-yl)thiazol-2-ylamino)phenyl)thiophene-2-carboxamide]	≥ 2950 nM	–
253 to 258 °C	–	C#Cc1cccc(Nc2ncnc3ccc(NC(=O)c4ccc(C(=O)Nc5ccccc5N)cc4)cc23)c1 [[37], N-(2-Amino-phenyl)-N′-[4-(3-ethynyl-phenylamino)-quinazolin-6-yl]-terephthalamide]	≥ 240 nM	IC50 [1]: ≥ 560 nM; IC50 [4]: ≥ 500 nM
190 to 194.2 °C	≥ 6.5 nM	C#Cc1cccc(Nc2ncnc3cc(NC(=O)c4cccc(/C=C/C(=O)Nc5ccccc5N)c4)ccc23)c1 [[42], (E)-3-(3-(2-aminophenylamino)-3-oxoprop-1-enyl)-N-(4-(3-ethynylphenylamino)quinazolin-7-yl)benzamide]	–	–
215 to 218 °C	–	Nc1ccccc1NC(=O)c1ccc(COc2ccc3ncnc(Nc4cccc(Br)c4)c3c2)cc1 [[43], N-(2-aminophenyl)-4-((4-(3-bromophenylamino)quinazolin-6-yloxy)-methyl)benzamide]	–	–
–	≥ 6.5 nM	C#Cc1cccc(Nc2ncnc3ccc(OCc4ccc(C(=O)Nc5ccccc5N)cc4)cc23)c1 [[44], N-(2-aminophenyl)-4-((4-(3-ethynylphenylamino)quinazolin-6-yloxy)methyl)benzamide]	–	–

— US20110065734A1, “NOVEL BIFUNCTIONAL COMPOUNDS WHICH INHIBIT PROTEIN KINASES AND HISTONE DEACETYLASES” (4SC AG, priority 2007, published 2011)
